The source of these data is patent US20230080054A1 (ILDONG PHARMACEUTICAL CO., LTD., priority 2021, published 2023).

The test addresses T1, human ANO6 (Homo sapiens, UniProt Q4KMQ2).
T1 construct: expressed in transfected cells
T1 sequence (Q4KMQ2 1-931 isoform Q4KMQ2-2): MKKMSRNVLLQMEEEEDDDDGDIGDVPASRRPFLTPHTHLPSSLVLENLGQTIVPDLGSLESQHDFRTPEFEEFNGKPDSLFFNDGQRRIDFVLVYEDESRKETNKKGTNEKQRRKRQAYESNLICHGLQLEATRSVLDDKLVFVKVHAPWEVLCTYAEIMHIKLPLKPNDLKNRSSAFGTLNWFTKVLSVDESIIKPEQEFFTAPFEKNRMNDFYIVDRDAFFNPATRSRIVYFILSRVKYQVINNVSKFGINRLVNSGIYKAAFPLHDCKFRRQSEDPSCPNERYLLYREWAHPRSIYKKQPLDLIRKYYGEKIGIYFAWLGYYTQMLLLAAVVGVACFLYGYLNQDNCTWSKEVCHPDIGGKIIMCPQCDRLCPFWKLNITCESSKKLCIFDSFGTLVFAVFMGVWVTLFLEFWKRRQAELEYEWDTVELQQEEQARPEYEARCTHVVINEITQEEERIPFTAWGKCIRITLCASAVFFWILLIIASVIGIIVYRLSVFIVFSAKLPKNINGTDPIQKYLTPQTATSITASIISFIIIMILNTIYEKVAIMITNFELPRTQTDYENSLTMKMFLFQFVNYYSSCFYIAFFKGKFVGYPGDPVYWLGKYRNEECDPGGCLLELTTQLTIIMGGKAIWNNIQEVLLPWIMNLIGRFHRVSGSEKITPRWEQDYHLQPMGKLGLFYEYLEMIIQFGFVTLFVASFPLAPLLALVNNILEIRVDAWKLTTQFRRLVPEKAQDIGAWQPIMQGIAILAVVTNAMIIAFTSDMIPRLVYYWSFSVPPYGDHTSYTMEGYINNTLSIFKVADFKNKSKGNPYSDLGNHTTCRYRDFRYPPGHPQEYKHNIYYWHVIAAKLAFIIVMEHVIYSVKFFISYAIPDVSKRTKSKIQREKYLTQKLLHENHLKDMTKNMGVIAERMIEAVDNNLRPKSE
Put plainly: LACT C2 assay (phosphatidylserine scramblase function assay). It is filed as cell-based. Conditions: FRT cells expressing human ANO6, 10 μM ionomycin; for inhibition at 0.1 µM: test compound 100 nM, read-out: Inhibition Level 100 nM; for inhibition at 1 µM: test compound 1 μM, read-out: Inhibition Level 1 μM. The source says:
Phosphatidylserine Scramblase Function Assay
1. Materials and Instruments
Ionomycin (Alomonelab, cat. #I-700), DAPI (Sigma-Aldrich, cat. #D8417), paraformaldehyde (Biosesang, cat. #P2031), Lionheart FX Automated Microscope (BioTek, Winooski), Python3 (Python Software Foundation), and OpenCV (Open Source Computer Vision Library).
Fisher rat thyroid (FRT) cells stably expressing human ANO6 (GenBank accession no. NP_001191732.1, provided by J. H. Nam, Dongguk University College of Medicine, Korea) were grown in DMEM/Ham's F-12 (1:1) medium with 10% FBS, 2 mM L-549 glutamine, 100 units/mL penicillin, and 100 μg/mL streptomycin at 37° C. and 5% CO2.
FRT cells stably expressing human ANO6 were plated in 96 well black-walled microplates at a density of 2×10^4 cells/well. After 24 hours incubation, cells were treated with the test compound (dissolved in DMSO) were treated to each well to become 1% v/v DMSO for 10 minutes, then 10 μM of ionomycin was applied. Finally each well was washed with 200 μL PBS after 10 minutes. After washout, the phosphatidylserine and nuclei were stained with PBS containing 500 nM Lactadherin-C2 (Lact-C2)-GFP, then cells were washed with 200 μL PBS. Cells were fixed with 4% paraformaldehyde for 5 minutes at room temperature. For morphological analysis, some cells were stained with fluorescently labelled DAPI for 15 minutes at room temperature. Quantitative analysis of the fluorescence intensity of Lact-C2-GFP was performed with Python3 and OpenCV. OpenCV was used to remove background and noise pixels, and the sum of all remaining pixel values was used to evaluate the fluorescence intensity of Lact-C2-GFP.
The inhibitory activity (%) of each of the test compounds was obtained by the following steps. In each row of 96 well plate, the inhibitory activity of each of the test compounds was calculated as percentages. The inhibitory activity of a negative control group to which neither compounds nor ionomycin were treated was set to be 100%, and the inhibitory activity of a positive control group to which ionomycin was treated and compounds were not treated was set to be 0%. The assay was performed in triplicate, and the results were averaged.

In general, inhibition refers to the share of the control response that was lost under treatment. Regarding `O=C(Nc1cccc(F)c1)c1cccc(NC2CCC(c3ccccc3)CC2)c1` (single isomer, unassigned) [Compound 188, N-(3-fluorophenyl)-3-((4-phenylcyclohexyl)amino)benzamide], the inhibition at 0.1 µM was below 30%.

For the molecule `COC(=O)c1ccc(CCNC(=O)c2cccc(Nc3ncc(-c4cccc(F)c4)cn3)c2)cc1` [Compound 126, methyl 4-(2-(3-((5-(3-fluorophenyl)pyrimidin-2-yl)amino)benzamido)ethyl)benzoate], the inhibition at 1 µM is below 30%.

With `COC(=O)c1ccccc1CCNC(=O)c1cccc(Nc2ncc(-c3cccc(F)c3)cn2)c1` [Compound 127, methyl 2-(2-(3-((5-(3-fluorophenyl)pyrimidin-2-yl)amino)benzamido)ethyl)benzoate], the inhibition at 0.1 µM is below 30% and the inhibition at 1 µM is below 30%.

As for `O=C(O)c1cccc(CCNC(=O)c2cccc(Nc3ncc(-c4cccc(F)c4)cn3)c2)c1` [Compound 129, 3-(2-(3-((5-(3-fluorophenyl)pyrimidin-2-yl)amino)benzamido)ethyl)benzoic acid], the inhibition at 0.1 µM is below 30% and the inhibition at 1 µM is below 30%.

With `O=C(O)c1ccc(CCNC(=O)c2cccc(Nc3ncc(-c4cccc(F)c4)cn3)c2)cc1` [Compound 130, 4-(2-(3-((5-(3-fluorophenyl)pyrimidin-2-yl)amino)benzamido)ethyl)benzoic acid], the inhibition at 0.1 µM was below 30% and the inhibition at 1 µM was below 30%.

Take `O=C(N[C@@H]1C[C@H]1c1ccc(Cl)c(F)c1)c1cccc(Nc2ncc(-c3cccc(F)c3)cn2)c1` [Compound 131, N-((1R,2S)-2-(4-chloro-3-fluorophenyl)cyclopropyl)-3-((5-(3-fluorophenyl)pyrimidin-2-yl)amino)benzamide]: the inhibition at 0.1 µM was below 30% and the inhibition at 1 µM was at least 60%.

In the case of `O=C(NCCc1ccccc1C(=O)O)c1cccc(Nc2ncc(-c3cccc(F)c3)cn2)c1` [Compound 132, 2-(2-(3-((5-(3-fluorophenyl)pyrimidin-2-yl)amino)benzamido)ethyl)benzoic acid], the inhibition at 0.1 µM was below 30% and the inhibition at 1 µM was below 30%.

As to `O=C(NC1(c2ccccc2)CC1)c1cccc(Nc2ncc(-c3cccc(F)c3)cn2)c1` [Compound 133, 3-((5-(3-fluorophenyl)pyrimidin-2-yl)amino)-N-(1-phenylcyclopropyl)benzamide], the inhibition at 0.1 µM was below 30% and the inhibition at 1 µM lay in the range of 30 to 60%.

Take `O=C(NC1(c2ccccc2)CC1)c1cccc(Nc2ccc(-c3cccc(F)c3)cn2)c1` [Compound 134, 3-((5-(3-fluorophenyl)pyridin-2-yl)amino)-N-(1-phenylcyclopropyl)benzamide]: the inhibition at 0.1 µM was below 30% and the inhibition at 1 µM was 30 to 60%.

As for `CN1CCN(Cc2ccc(NC(=O)c3cccc(Nc4ncc(-c5cccc(F)c5)cn4)c3)cc2)CC1` [Compound 135, 3-((5-(3-fluorophenyl)pyrimidin-2-yl)amino)-N-(4-((4-methylpiperazin-1-yl)methyl)phenyl)benzamide], the inhibition at 0.1 µM is below 30% and the inhibition at 1 µM was in the range of 30 to 60%.

Regarding `N#Cc1cccc(NC(=O)c2cccc(Nc3ncc(-c4cccc(F)c4)cn3)c2)c1` [Compound 136, N-(3-cyanophenyl)-3-((5-(3-fluorophenyl)pyrimidin-2-yl)amino)benzamide], the inhibition at 0.1 µM was below 30% and the inhibition at 1 µM was at least 60%.

Take `O=C(Nc1cccc([N+](=O)[O-])c1)c1cccc(Nc2ncc(-c3cccc(F)c3)cn2)c1` [Compound 137, 3-((5-(3-fluorophenyl)pyrimidin-2-yl)amino)-N-(3-nitrophenyl)benzamide]: the inhibition at 0.1 µM is below 30% and the inhibition at 1 µM is at least 60%.

For `O=C(Nc1nccs1)c1cccc(Nc2ncc(-c3cccc(F)c3)cn2)c1` [Compound 138, 3-((5-(3-fluorophenyl)pyrimidin-2-yl)amino)-N-(thiazol-2-yl)benzamide], the inhibition at 0.1 µM was below 30% and the inhibition at 1 µM was at least 60%.

In the case of `CN1CCC(CCNC(=O)c2cccc(Nc3ccc(-c4cccc(F)c4)cn3)c2)CC1` [Compound 139, 3-((5-(3-fluorophenyl)pyridin-2-yl)amino)-N-(2-(1-methylpiperidin-4-yl)ethyl)benzamide], the inhibition at 0.1 µM was below 30% and the inhibition at 1 µM was below 30%.

In the case of `CN1CCC(CNC(=O)c2cccc(Nc3ccc(-c4cccc(F)c4)cn3)c2)CC1` [Compound 140, 3-((5-(3-fluorophenyl)pyridin-2-yl)amino)-N-((1-methylpiperidin-4-yl)methyl)benzamide], the inhibition at 0.1 µM was below 30% and the inhibition at 1 µM was below 30%.

As to `Nc1ccccc1NC(=O)c1cccc(Nc2ccc(-c3cccc(F)c3)cn2)c1` [Compound 143, N-(2-aminophenyl)-3-((5-(3-fluorophenyl)pyridin-2-yl)amino)benzamide], the inhibition at 0.1 µM is below 30% and the inhibition at 1 µM lay in the range of 30 to 60%.

As for `CN1CCC(C2CC2NC(=O)c2cccc(Nc3ccc(-c4cccc(F)c4)cn3)c2)CC1` (centres unmarked) [Compound 144, 3-((5-(3-fluorophenyl)pyridin-2-yl)amino)-N-(2-(1-methylpiperidin-4-yl)cyclopropyl)benzamide], the inhibition at 0.1 µM is below 30% and the inhibition at 1 µM was below 30%.

As to `CN1CCC(CNC(=O)c2cccc(Nc3ccc(-c4cccc(F)c4)cn3)c2)C1` (centres unmarked) [Compound 145, 3-((5-(3-fluorophenyl)pyridin-2-yl)amino)-N-((1-methylpyrrolidin-3-yl)methyl)benzamide], the inhibition at 0.1 µM was below 30% and the inhibition at 1 µM is below 30%.

Turning to `Nc1ccc(NC(=O)c2cccc(Nc3ccc(-c4cccc(F)c4)cn3)c2)cc1` [Compound 146, N-(4-aminophenyl)-3-((5-(3-fluorophenyl)pyridin-2-yl)amino)benzamide], the inhibition at 0.1 µM was below 30% and the inhibition at 1 µM was in the range of 30 to 60%.

With `Nc1cccc(CCNC(=O)c2cccc(Nc3ncc(-c4cccc(F)c4)cn3)c2)c1` [Compound 147, N-(3-aminophenethyl)-3-((5-(3-fluorophenyl)pyrimidin-2-yl)amino)benzamide], the inhibition at 0.1 µM is below 30% and the inhibition at 1 µM is below 30%.

With `Nc1ccccc1CCNC(=O)c1cccc(Nc2ncc(-c3cccc(F)c3)cn2)c1` [Compound 148, N-(2-aminophenethyl)-3-((5-(3-fluorophenyl)pyrimidin-2-yl)amino)benzamide], the inhibition at 0.1 µM was below 30% and the inhibition at 1 µM was below 30%.

On to `O=C(N[C@@H]1C[C@H]1c1ccccc1)c1ccnc(Nc2ccc(-c3ccccc3)cn2)c1` [Compound 149, N-((1R,2S)-2-phenylcyclopropyl)-2-((5-phenylpyridin-2-yl)amino)isonicotinamide], for which the inhibition at 0.1 µM was below 30% and the inhibition at 1 µM is at least 60%.

With `Cc1c(C2CC2NC(=O)c2cccc(Nc3ncc(-c4cccc(F)c4)cn3)c2)cnn1C` (centres unmarked) [Compound 150, N-(2-(1,5-dimethyl-1H-pyrazol-4-yl)cyclopropyl)-3-((5-(3-fluorophenyl)pyrimidin-2-yl)amino)benzamide], the inhibition at 0.1 µM is below 30% and the inhibition at 1 µM was below 30%.
